One data set relates to Fancd2-deficient mice. As to the kind of experiment: pIpC physiological stress-induced bone marrow failure, LT-HSC DNA damage. It counts as in vivo, mouse. An excerpt:
FIG. 13. […] Mice were pretreated in vivo with either no Tgfβ inhibitor, the neutralizing antibody to Tgfβ 1, 2, 3, or the Tgfβ receptor kinase inhibitor, Galunisertib.

Another data set deals with Fancd2−/− stromal cells. As to the kind of experiment: Immunoblot of phosphorylated Erk1/2 in bone marrow stromal cells. It counts as cell-based, mouse. As to the method: FIG. 2. Characterization of FA murine primary bone marrow stromal fibroblast. • A) Survival of Fancd2+/+ or Fancd2−/− stromal cells in the presence of MMC. Data are shown in triplicate. […] (Left panel) Active mouse Tgfβ1 serum levels in the culture supernatant of Fancd2+/+ or Fancd2−/− stromal cells were evaluated by ELISA. (Right panel) qRT-PCR analysis of Tgfb1 mRNA expression. Data are shown the average of three independent experiments. Error bars represent s.e.m. • C) Immunoblots of phosphorylated Erk1/2 in stromal cells treated with Tgfβ for the indicated time.
FIG. 3. […] Error bars represent s.e.m.
Human FA cells EUFA316 were grown in RPMI1640 (Life Technologies) supplemented with 10% fetal calf serum. Fancd2^+/+ and Fancd2^−/− bone marrow stromal cells were established by culturing whole bone marrow in DMEM with 10% FBS. Fancd2^−/− stromal cells were complemented with human FANCD2 by retroviral transduction of FANCD2 cDNA in pMMP-PURO vector, followed by selection in puromycin. Whole cell extracts were prepared by lysing cells in radioimmunoprecipitation assay buffer (50 mmol/L Tris, pH 7.3, 150 mmol/L NaCl, 1 mmol/L EDTA, 1% Triton X-100, 0.5% Na-deoxycholate, and 0.1% SDS) with complete protease inhibitor, NaVO4, and NaF.

The test system of data set [1] is Fancd2−/− BM Stromal cells. Briefly: Colony forming capacity of bone marrow stromal cells. It counts as cell-based, mouse. The note with it: 1 μM Mek-i. On the procedure: FIG. 3. […] Fancd2+/+ stromal cells shown as a control. • B) Colony forming capacity of Fancd2−/− BM Stromal cells is improved by treatment with 1 μM Mek-i. • C) Immunoblot analysis showing deletion of Tgfbr1, Smad3 and p53 in murine Fancd2+/+ and Fancd2−/− stromal cells • D) Survival of Fancd2−/− stromal cells with deletion of Tgfbr1, Smad3 or p53 in presence of MMC. Error bars represent s.e.m.
FIG. 9. […] Representative image of colonies of Fancd2+/+ and Fancd2−/− cells incubated with or without 1 μM Mek inhibitor.
(§1) For survival assays, cells were seeded at a density of 1×10^3 cells per well in 96-well plates. After 72 hours of culture in indicated concentrations of MMC or post exposure of acetaldehyde, viability was assessed using CellTiterGlo reagent (Promega). In order to assess clonogenicity, cells were seeded at a low density (500-1000 cells per well) in 6-well plates and allowed to form colonies. The cells were then fixed in methanol/20% acetic acid and stained with 1% crystal violet. Colony formation was assessed by solubilizing crystal violet stain with methanol and quantifying UV absorbance for each condition.

The subject of data set [2] is EUFA316 (FA-G fibroblasts). Briefly: MMC sensitivity survival assay of FA cells with TGFβ pathway inhibitors. Format: cell-based, human. On the procedure:
FIG. 1. TGFβ pathway disruption enhances FA cellular growth. • A) RIGER P value analysis to identify top candidate genes. • B) Clonogenic survival of GM6914 (FA-A fibroblasts) and FANCA-corrected GM6914 cells after shRNA mediated knockdown of SMAD3. Cells were treated with increasing doses of MMC and plated for 10-12 days. The average of two experiments is presented; error bars represent s.e.m.
as §1
For survival assays, cells were seeded at a density of 1×10^3 cells per well in 96-well plates. After 3-6 days of culture in indicated concentrations of MMC or post exposure of acetaldehyde, viability was assessed using CellTiterGlo reagent (Promega). In order to assess clonogenicity, cells were seeded at a low density (500-1000 cells per well) in 6-well plates and allowed to form colonies. The cells were then fixed in methanol/20% acetic acid and stained with 1% crystal violet. Colonies were counted after crystal violet staining.

For data set [3], the system named is U2OS cells. As to the kind of experiment: NHEJ reporter assay. It counts as cell-based, human. The settings on record: template reporter assay. Background: A reporter such as luciferase makes a cellular process visible.
Data set [4] deals with U2OS cells. As to the kind of experiment: Immunoblot of DNA-PK phosphorylation. Format: cell-based, human.
Data set [5] relates to primary HSPCs from bone marrow of FA patients. As to the kind of experiment: Colony forming assay of primary CD34+ bone marrow cells from FA patients. The settings on record: methylcellulose, colonies after 10 days. Format: cell-based, human. The source says:
(§2) (A) Hierarchical clustering and heat-map of the expression of TGF-β pathway genes in human FA and non-FA bone marrow samples using gene set enrichment analysis. (B-F) Colony forming assays using primary CD34+ bone marrow cells from five FA patients. Cells were transduced with lentiviruses encoding shControl, shTP53 or shSMAD3 followed by selection for puromycin resistance and then plated in methylcellulose cultures or the cells were directly plated in methylcellulose cultures containing GC1008 for colony growth. The hematopoietic colonies were counted after 10 days in culture. (G-I) Colony forming assays using FA-like CD34+ cells from human cord blood. As shown in the schematic (G), FA-like CD34+ cells were generated by transducing human cord blood CD34+ cells with lentivirus encoding shFANCD2. […] Hematopoietic colonies were counted after 10-14 days in culture (I). (J) Colony forming assay of FA-like CD34+ cells with GC1008 treatment. Hematopoietic colonies were counted after 10-14 days in culture. […] Human cells were analyzed in the peripheral blood at 2 weeks post transplantation. […] Representative images (L) and quantification (M) of γH2AX foci in cord blood CD34+ cells transduced with lentivirus encoding shFANCD2 or shControl. […] Cells were then analyzed for γH2AX foci by immunofluorescence. Thirty to hundred cells with more than 5 foci were counted for each sample. […]

Data set [6] concerns FA-like CD34+ cells from human cord blood. As to the kind of experiment: Colony forming assay of FA-like CD34+ cells. The note with it: GC1008 10 μg/mL, colonies after 10-14 days. It counts as cell-based.
From the text: as §2, with “blood.” for “blood. As shown in the schematic (G), FA-like CD34+ cells were generated by transducing human cord blood CD34+ cells with lentivirus encoding shFANCD2.”, “(J) Colony forming assay of FA-like CD34+ cells with GC1008 treatment.” left out
(§3) (Dataset: GSE16334). […] Cells were cultured in methylcellulose medium post MMC treatment (2 h at 100 ng/mL) and hematopoietic colonies were counted after 10 days in culture. […] Hematopoietic colonies were counted after 10-14 days in culture. […]

For another data set, the system named is FA-like HSPCs. Briefly: γH2AX and 53BP1 foci after MMC in FA-like HSPCs. It counts as cell-based, human.
From the text: as §2, with “(J) Colony forming assay of FA-like CD34+ cells with GC1008 treatment.” left out
HSPCs. […] Representative images (F) and quantification (G) of 53BP1 foci are shown.

Data set [7] deals with FA-like CD34+ cells in NSG mice. As to the kind of experiment: In vivo xenograft assay of FA-like CD34+ cells. Details: species or system mouse. The note with it: 10 mg/kg, 3 doses per week for 2 weeks, peripheral blood at 2 and 8 weeks.
From the text: as §2, with “blood.” for “blood. As shown in the schematic (G), FA-like CD34+ cells were generated by transducing human cord blood CD34+ cells with lentivirus encoding shFANCD2.”, “(J) Colony forming assay of FA-like CD34+ cells with GC1008 treatment.” left out
as §3

Another data set has as its system Fancd2−/− HSPCs. As to the kind of experiment: Clonogenic assay of HSPCs in methylcellulose. Format: cell-based, mouse. The settings on record: TGF-β1 1 ng/mL, Ab 10 μg/mL or SD208 10 μM; colonies after 7-10 days. As to the method:
(A) Expression of phospho-Smad2/3 proteins in HSPCs from WT and Fancd2−/− mice as detected by flow cytometric analysis. (B) Quantification of mean fluorescence intensity (MFI) of phospho-Smad2/3 staining by flow cytometric analysis shown in (A) in HSPCs from WT and Fancd2−/− mice. (C) Fancd2−/− HSPCs are more sensitive to TGF-β1 than WT HSPCs. Sorted Lin− cells from WT or Fancd2−/− mice were exposed to TGF-β1. After 5 days in culture, LSK cells were analyzed by flow cytometry and quantified. Data are shown after normalizing to untreated WT group. […] Sorted Lin− cells from WT and Fancd2−/− mice were exposed to TGF-β1 (1 ng/mL) with or without TGF-beta 1,2,3 Ab (10 μg/mL) or SD208 (10 μM), and viable cells were counted after 5 days in culture. Data shown are after normalizing to untreated WT group. Error bars represent mean±s.e.m. (F) Clonogenic assay of WT and Fancd2−/− HSPCs treated with TGF-β1, TGF-beta 1, 2, 3 Ab or SD208. […] Hematopoietic colonies were counted after 7-10 days in culture. […] (I) Representative FACS plots of LSK cells analyzed by flow cytometry for GFP expression after 5 days in vitro culture in stem cell culture medium. […] Luciferase activity was measured. (L) Binding of FANCD2 to SMAD1 promoter (region −2108 to −1950 bp) upon DNA damage as detected by ChIP assay using anti-FANCD2 antibody in corrected GM6914 (+FANCA) but not GM6914 (+Vector) fibroblast cells. […]

[8] abbreviates: mice pretreated in vivo, LT-HSCs isolated.

“Also recorded” adds a separate entry of the source.

Regarding `Cc1cccc(-c2nn3c(c2-c2ccnc4ccc(C(N)=O)cc24)CCC3)n1` [Galunisertib], in the data set with Fancd2-deficient mice (setting [8]), the “pIpC-induced DNA damage in LT-HSCs, comet assay” value was “rescued the pIpC-induced DNA damage” and the “pIpC-induced DNA damage, gamma H2AX foci” value was “rescued the pIpC-induced DNA damage”. Further, the “physiological stress-induced bone marrow failure” value in the data set with Fancd2-deficient mice (mice, pIpC, pretreated in vivo) is “rescues physiological stress-induced bone marrow failure”.
In the case of `O=C(NOC[C@H](O)CO)c1ccc(F)c(F)c1Nc1ccc(I)cc1F` [PD0325901], the Erk1/2 phosphorylation result in the data set on Fancd2−/− stromal cells (mouse stromal cells exposed to MEK inhibitor) is reported as “inhibition of Erk1/2 phosphorylation; also recorded: reduces p-Erk1/2 expression”. Moreover, the “clonogenicity / colony forming capacity of Fancd2−/− stromal cells” value is recorded as “significantly increased the clonogenicity” in [1] and “improved” in [1] (listed as Mek-i).
For `COc1cc2c(cc1OC)CN(C(=O)/C=C/c1c(-c3ccccc3)n(C)c3ncccc13)CC2` [SIS3], the “FA cells survival in the presence of MMC” value in data set [2] (FA cell lines with inhibitor) is “improved FA cells survival in the presence of MMC”. Besides, the “cytotoxicity of corrected FA cells” value in [2] (corrected FA cells) is on record as “do not significantly alter cytotoxicity of corrected FA cells”. The NHEJ activity result in the data set with U2OS cells [3] is “decreased NHEJ”. Besides, the “phosphorylation of DNA-PK” value in the data set on U2OS cells [4] is on record as “blocks phosphorylation of DNA-PK”.
As for “GC1008: anti-human TGF-β neutralizing antibody”, the “clonogenic defects of primary HSPCs from FA patients” value in data set [5] is listed as “rescued the clonogenic defects”. Besides, the “clonogenic capacity of FA-like HSPCs” value in [6] is “markedly rescuing the clonogenic capacity”. Also, in the data set on FA-like HSPCs (MMC 100 ng/mL 2 h, 24 h recovery), the “number of FA-like HSPCs with 53BP1 foci” value is listed as “significantly reduced”. In addition, in the data set with FA-like HSPCs (MMC 100 ng/ml 2 hrs, 24 hrs recovery), the “number of FA-like HSPCs with γH2AX foci” value is on record as “significantly reduced”. In addition, the “engraftment of primary FA-like CD34+ cells” value in data set [7] is recorded as “enhanced the engraftment”.
On to “TGF-β1: recombinant TGFβ1 cytokine (human from ProPeptide, mouse from R&D)”, for which the “pErk1/2 after mTGFβ1 exposure” value in the data set on Fancd2−/− stromal cells (FA stromal cells) was “further activated pErk1/2”. Also, the “clonogenic ability of Fancd2−/− HSPCs” value in the data set on Fancd2−/− HSPCs was “inhibited”. Besides, the “phosphorylation of DNA-PK” value with U2OS cells [4] was “activated phosphorylation of DNA-PK”.
